In patent US7704992B2, “Hepatitis C virus inhibitors” (Bristol-Myers Squibb Company, priority 2008, dated 2010) one finds EC50 data, which are given here for 16 compounds.

SMILES strings stand for the structures. Read-outs that look alike come from different tables or passages of the source.

The assay concerns HCV 1b-377-neo replicon cells. As to the kind of experiment: HCV Replicon assay, HCV 1b genotype. In kind it is cell-based. As to conditions: Hepatitis C virus. As for the experimental part:
An HCV Replicon assay was utilized in the present disclosure, and was prepared, conducted and validated as described in commonly owned PCT/US2006/022197 and in O'Boyle et. al. Antimicrob Agents Chemother. 2005 April; 49(4): 1346-53.
HCV 1b-377-neo replicon cells were used to test the currently described compound series as well as cells resistant to compound A containing a Y2065H mutation in NS5A (described in application PCT/US2006/022197). The compounds tested were determined to have more than 10-fold less inhibitory activity on cells containing the mutation than wild-type cells indicating a related mechanism of action between the two compound series. Thus, the compounds of the present disclosure can be effective to inhibit the function of the HCV NS5A protein and are understood to be as effective in combinations as previously described in application PCT/US2006/022197 and commonly owned WO/04014852. Further, the compounds of the present disclosure can be effective against the HCV 1b genotype. It should also be understood that the compounds of the present disclosure can inhibit multiple genotypes of HCV. […] In one embodiment compounds of the present disclosure are active against the 1a, 1b, 2a, 2b, 3a, 4a, and 5a genotypes.

Setting [1] is: class symbol, read-out: EC50 range against HCV 1b.
The mark [2] stands for this setting: value in pM, read-out: EC50 value against HCV 1b.

For the compound `CCN(CC)C(C(=O)N1CCC[C@H]1c1ncc(-c2ccc3c(c2)CN(C)Cc2cc(-c4cnc([C@@H]5CCCN5C(=O)C(c5ccccc5)N(CC)CC)[nH]4)ccc2-3)[nH]1)c1ccccc1` (stereo in doubt) [Example 7, (1S,1′S) -2,2′-((6-methyl-6,7-dihydro-5H-dibenzo[c,e]azepine-3,9-diyl)bis(1H-imidazole-4,2-diyl(2S)-2,1-pyrrolidinediyl)) bis(N,N-diethyl-2-oxo-1-phenylethanamine)], the half-maximal effective concentration (EC50) under setting [1] was in the range of 101 to 999 pM.

In the case of `CCN(CC)C(C(=O)N1CCC[C@H]1c1ncc(-c2ccc3c(c2)COCc2cc(-c4cnc([C@@H]5CCCN5C(=O)C(c5ccccc5)N(CC)CC)[nH]4)ccc2-3)[nH]1)c1ccccc1` (stereo in doubt) [Example 12, (1S,1′S)-2,2′-(5,7-dihydrodibenzo[c,e]oxepine-3,9-diylbis(1H-imidazole-4,2-diyl(2S)-2,1-pyrrolidinediyl))bis(N,N-diethyl-2-oxo-1-phenylethanamine)], the EC50 under setting [1] lay within 101 to 999 pM. Regarding `COC(=O)N[C@H](C(=O)N1CCC[C@H]1c1ncc(-c2ccc3c(c2)C(=O)c2cc(-c4cnc([C@@H]5CCCN5C(=O)[C@@H](NC(=O)OC)C(C)C)[nH]4)ccc2-3)[nH]1)C(C)C` [Example 1, methyl ((1S)-1-(((2S)-2-(5-(7-(2-((2S)-1-((2S)-2-((methoxycarbonyl)amino)-3-methylbutanoyl)-2-pyrrolidinyl)-1H-imidazol-5-yl)-9-oxo-9H-fluoren-2-yl)-1H-imidazol-2-yl)-1-pyrrolidinyl)carbonyl)-2-methylpropyl)carbamate], under setting [2], the 50% effective concentration (EC50) was 9 pM.

Regarding `COC(=O)N[C@H](C(=O)N1CCC[C@H]1c1ncc(-c2ccc3c(c2)C(O)c2cc(-c4cnc([C@@H]5CCCN5C(=O)[C@@H](NC(=O)OC)C(C)C)[nH]4)ccc2-3)[nH]1)C(C)C` [Example 2, methyl ((1S)-1-(((2S)-2-(5-(9-hydroxy-7-(2-((2S)-1-((2S)-2-((methoxycarbonyl)amino)-3-methylbutanoyl)-2-pyrrolidinyl)-1H-imidazol-5-yl)-9H-fluoren-2-yl)-1H-imidazol-2-yl)-1-pyrrolidinyl)carbonyl)-2-methylpropyl)carbamate], the half-maximal effective concentration (EC50) under setting [1] was 101 to 999 pM. On the same count and under the same terms, the value for `COC(=O)N[C@H](C(=O)N1CCC[C@H]1c1ncc(-c2ccc3c(c2)C(N(C)C)c2cc(-c4cnc([C@@H]5CCCN5C(=O)[C@@H](NC(=O)OC)C(C)C)[nH]4)ccc2-3)[nH]1)C(C)C` [Example 3, methyl ((1S)-1-(((2S)-2-(5-(9-(dimethylamino)-7-(2-((2S)-1-((2S)-2-((methoxycarbonyl)amino)-3-methylbutanoyl)-2-pyrrolidinyl)-1H-imidazol-5-yl)-9H-fluoren-2-yl)-1H-imidazol-2-yl)-1-pyrrolidinyl)carbonyl)-2-methylpropyl)carbamate] was 101 to 999 pM; that for `COC(=O)N[C@H](C(=O)N1CCC[C@H]1c1ncc(-c2ccc3c(c2)Cc2cc(-c4cnc([C@@H]5CCCN5C(=O)[C@@H](NC(=O)OC)C(C)C)[nH]4)ccc2-3)[nH]1)C(C)C` [Example 4, methyl ((1S)-1-(((2S)-2-(5-(7-(2-((2S)-1-((2S)-2-((methoxycarbonyl)amino)-3-methylbutanoyl)-2-pyrrolidinyl)-1H-imidazol-5-yl)-9H-fluoren-2-yl)-1H-imidazol-2-yl)-1-pyrrolidinyl)carbonyl)-2-methylpropyl)carbamate] was 1 to 100 pM. The same measure, in the same setting: the value for `COC(=O)N[C@H](C(=O)N1CCC[C@H]1c1ncc(-c2ccc3c(c2)Cc2cc(-c4cnc([C@@H]5CCCN5C(=O)[C@@H](NC(=O)OC)[C@@H](C)OC)[nH]4)ccc2-3)[nH]1)[C@@H](C)OC` [Example 5, methyl ((1S,2R)-2-methoxy-1-(((2S)-2-(5-(7-(2-((2S)-1-(N-(methoxycarbonyl)-O-methyl-L-threonyl)-2-pyrrolidinyl)-1H-imidazol-5-yl)-9H-fluoren-2-yl)-1H-imidazol-2-yl)-1-pyrrolidinyl)carbonyl)propyl)carbamate] was 1 to 100 pM.

`COC(=O)N[C@H](C(=O)N1CCC[C@H]1c1ncc(-c2ccc3c(c2)CN(C)Cc2cc(-c4cnc([C@@H]5CCCN5C(=O)[C@@H](NC(=O)OC)C(C)C)[nH]4)ccc2-3)[nH]1)C(C)C` [Example 6, methyl ((1S)-1-(((2S)-2-(5-(9-(2-((2S)-1-((2S)-2-((methoxycarbonyl)amino)-3-methylbutanoyl)-2-pyrrolidinyl)-1H-imidazol-5-yl)-6-methyl-6,7-dihydro-5H-dibenzo[c,e]azepin-3-yl)-1H-imidazol-2-yl)-1-pyrrolidinyl)carbonyl)-2-methylpropyl) carbamate]: the EC50 (value in nM, read-out: EC50 value against HCV 1b) stood at 2000 pM. Regarding `COC(=O)N[C@H](C(=O)N1CCC[C@H]1c1ncc(-c2ccc3c(c2)COCc2cc(-c4cnc([C@@H]5CCCN5C(=O)[C@@H](NC(=O)OC)C(C)C)[nH]4)ccc2-3)[nH]1)C(C)C` [Example 8, methyl ((1S)-1-(((2S)-2-(5-(9-(2-((2S)-1-((2S)-2-((methoxycarbonyl)amino)-3-methylbutanoyl)-2-pyrrolidinyl)-1H-imidazol-4-yl)-5,7-dihydrodibenzo[c,e]oxepin-3-yl)-1H-imidazol-2-yl)-1-pyrrolidinyl)carbonyl)-2-methylpropyl)carbamate], the 50% effective concentration (EC50) under setting [1] lay in the range of 1 to 100 pM.

For `COC(=O)N[C@@H](C)C(=O)N1CCC[C@H]1c1ncc(-c2ccc3c(c2)COCc2cc(-c4cnc([C@@H]5CCCN5C(=O)[C@H](C)NC(=O)OC)[nH]4)ccc2-3)[nH]1` [Example 9, methyl ((1S)-2-((2S)-2-(4-(9-(2-((2S)-1-(N-(methoxycarbonyl)-L-alanyl)-2-pyrrolidinyl)-1H-imidazol-4-yl)-5,7-dihydrodibenzo[c,e]oxepin-3-yl)-1H-imidazol-2-yl)-1-pyrrolidinyl)-1-methyl-2-oxoethyl)carbamate], under setting [1], the EC50 lay within 1 to 100 pM. With `COC(=O)N[C@H](C(=O)N1CCC[C@H]1c1ncc(-c2ccc3c(c2)COCc2cc(-c4cnc([C@@H]5CCCN5C(=O)[C@@H](NC(=O)OC)C5CCOCC5)[nH]4)ccc2-3)[nH]1)C1CCOCC1` [Example 10, dimethyl (5,7-dihydrodibenzo[c,e]oxepine-3,9-diylbis(1H-imidazole-4,2-diyl(2S)-2,1-pyrrolidinediyl((1S)-2-oxo-1-(tetrahydro-2H-pyran-4-yl)-2,1-ethanediyl)))biscarbamate], the EC50 under setting [1] is 101 to 999 pM.

Take `COC(=O)NC(C(=O)N1CCC[C@H]1c1ncc(-c2ccc3c(c2)COCc2cc(-c4cnc([C@@H]5CCCN5C(=O)C(NC(=O)OC)C5CCOCC5)[nH]4)ccc2-3)[nH]1)C1CCOCC1` (stereo partly drawn) [Example 10A, dimethyl (5,7-dihydrodibenzo[c,e]oxepine-3,9-diylbis(1H-imidazole-4,2-diyl(2S)-2,1-pyrrolidinediyl(2-oxo-1-(tetrahydro-2H-pyran-4-yl)-2,1-ethanediyl)))biscarbamate]: the EC50 under setting [1] is 1000 to 99000 pM. With `COC(=O)N[C@H](C(=O)N1CCC[C@H]1c1ncc(-c2ccc3c(c2)COCc2cc(-c4cnc([C@@H]5CCCN5C(=O)[C@@H](NC(=O)OC)[C@@H](C)OC)[nH]4)ccc2-3)[nH]1)[C@@H](C)OC` [Example 11, methyl ((1S,2R)-2-methoxy-1-(((2S)-2-(4-(9-(2-((2S)-1-(N-(methoxycarbonyl)-O-methyl-L-threonyl)-2-pyrrolidinyl)-1H-imidazol-4-yl)-5,7-dihydrodibenzo[c,e]oxepin-3-yl)-1H-imidazol-2-yl)-1-pyrrolidinyl)carbonyl)propyl)carbamate], under setting [2], the concentration giving a half-maximal response (EC50) came out at 146 pM. With `COC(=O)N[C@H](C(=O)N1CCC[C@H]1c1ncc(-c2ccc3c(c2)C(C)(N(C)C)c2cc(-c4cnc([C@@H]5CCCN5C(=O)[C@@H](NC(=O)OC)C(C)C)[nH]4)ccc2-3)[nH]1)C(C)C` [Example 13, methyl ((1S)-1-(((2S)-2-(5-(9-(dimethylamino)-7-(2-((2S)-1-((2S)-2-((methoxycarbonyl)amino)-3-methylbutanoyl)-2-pyrrolidinyl)-1H-imidazol-5-yl)-9-methyl-9H-fluoren-2-yl)-1H-imidazol-2-yl)-1-pyrrolidinyl)carbonyl)-2-methylpropyl)carbamate], the EC50 under setting [1] lay within 1 to 100 pM. On the same count and under the same terms, the value for `COC(=O)N[C@H](C(=O)N1CCC[C@H]1c1ncc(-c2ccc3c(c2)C(C)(C)c2cc(-c4cnc([C@@H]5CCCN5C(=O)[C@@H](NC(=O)OC)C(C)C)[nH]4)ccc2-3)[nH]1)C(C)C` [Example 14, methyl ((1S)-1-(((2S)-2-(5-(7-(2-((2S)-1-((2S)-2-((methoxycarbonyl)amino)-3-methylbutanoyl)-2-pyrrolidinyl)-1H-imidazol-5-yl)-9,9-dimethyl-9H-fluoren-2-yl)-1H-imidazol-2-yl)-1-pyrrolidinyl)carbonyl)-2-methylpropyl)carbamate] was 1 to 100 pM. In the case of `COC(=O)N[C@H](C(=O)N1CCC[C@H]1c1ncc(-c2ccc3c(c2)C(C)(C)c2cc(-c4cnc([C@@H]5CCCN5C(=O)[C@@H](NC(=O)OC)C5CC5)[nH]4)ccc2-3)[nH]1)C1CC1` [Example 15, dimethyl ((9,9-dimethyl-9H-fluorene-2,7-diyl)bis(1H-imidazole-5,2-diyl(2S)-2,1-pyrrolidinediyl((1S)-1-cyclopropyl-2-oxo-2,1-ethanediyl)))biscarbamate], the EC50 under setting [2] stood at 52 pM.
